# Key:
# Assay type in all cases: physicochemical
# [1] = Solubility of the free base in water; conditions: also at 100° C.
# Method: According to a preferred method to carry out the procedure defined above as “salt formation”, the formation of ralfinamide methanesulfonate form H or its R-enantiomer is carried out by using water as the sole solvent in which the free base and the methanesulfonic acid are contacted in substantially equimolecular proportion. According to a more preferred method, methanesulfonic acid is added to a suspension or emulsion of the free base in water. Generally 50-70 percent of the stoichiometric amount of the acid is initially added. […] The remaining portion of methanesulfonic acid to complete the stoichiometric amount required for the salification, or a small excess or defect (in both cases of up to 3 molar %), is subsequently added to the obtained solution. […] Therefore, it would not be possible to apply prior to the addition of the acid, any purification method implying the treatment of a solution of the free base with active charcoal or inert powder followed by filtration to remove small particles and/or impurities. […] The complementary amount of acid may be added soon after this treatment of the solution, preferably, after lowering the temperature of the mixture below 70° C.
# [2] = Intrinsic Dissolution Rate (IDR) measurement according to USP General Chapter <1087>; conditions: ralfinamide methanesulfonate solid forms, USP <1087>
# Method: Intrinsic dissolution rate is characteristic of each solid compound in a given solvent under fixed hydrodynamic conditions. The knowledge of this value helps in predicting if absorption would be dissolution rate-limited. The Intrinsic Dissolution Rate (IDR) measurement of ralfinamide methanesulfonate form A and H was performed according to USP General Chapter <1087>.
# [3] = Exposure of form A crystals to air stream of high relative humidity (water uptake, solid form conversion); conditions: 97% RH air stream at 25° C. for two months
# Text: As an alternative procedure to the slurring with water for converting anhydrous form A crystals containing undesired amounts of genotoxic impurities and/or of the residual solvents known as potential precursors thereof into the corresponding hemihydrate pseudopolymorph form H substantially free from the genotoxic impurities and/or the residual solvents known as potential precursors thereof, the capability of anhydrous form A crystals to uptake water from air having high degree of relative humidity may be exploited. For example, full conversion of form A crystals into the corresponding hemihydrate pseudopolymorph form H crystals can be achieved by keeping a batch of ralfinamide methanesulfonate or its R-enantiomer form A crystals under air stream having relative humidity higher than 65% at a temperature from 5° C. to 30° C. for a period of time which may vary from days to weeks or months, depending on the relative humidity degree and the temperature.
structure (smiles),measurement,setting,value
"C[C@H](NCc1ccc(OCc2ccccc2F)cc1)C(N)=O [Ralfinamide free base, (S)-2-[4-(2-fluorobenzyloxy)benzylamino]propanamide]",Solubility in water,[1],practically insoluble in water
"C[C@@H](NCc1ccc(OCc2ccccc2F)cc1)C(N)=O [R-enantiomer, (R)-2-[4-(2-fluorobenzyloxy)benzylamino]propanamide]",Solubility in water,[1],practically insoluble in water
"CS(=O)(=O)O.C[C@H](NCc1ccc(OCc2ccccc2F)cc1)C(N)=O [Anhydrous form A, (S)-2-[4-(2-fluorobenzyloxy)benzylamino]propanamide methanesulfonate]",Intrinsic Dissolution Rate,[2],1.527 ± 0.265 mg · cm−2 · min−1
same,Solid form stability under humid air,[3],fully converted into the form H
"CS(=O)(=O)O.C[C@H](NCc1ccc(OCc2ccccc2F)cc1)C(N)=O [Hemihydrate form H, (S)-2-[4-(2-fluorobenzyloxy)benzylamino]propanamide methanesulfonate]",Intrinsic Dissolution Rate,[2],0.857 ± 0.012 mg · cm−2 · min−1
